Experiments:
Test in all cases: KINOMEscan (ScanMAX) kinase profiling
Format in all cases: binding
panel of 468 kinases [1] = target: T1, panel of 468 kinases (Homo sapiens, UniProt Q9UL54); conditions: TAOK2; 1 μM; read-out: % control
T1 construct: purchased KINOMEscan (ScanMAX) service
T1 sequence (Q9UL54 1-1235): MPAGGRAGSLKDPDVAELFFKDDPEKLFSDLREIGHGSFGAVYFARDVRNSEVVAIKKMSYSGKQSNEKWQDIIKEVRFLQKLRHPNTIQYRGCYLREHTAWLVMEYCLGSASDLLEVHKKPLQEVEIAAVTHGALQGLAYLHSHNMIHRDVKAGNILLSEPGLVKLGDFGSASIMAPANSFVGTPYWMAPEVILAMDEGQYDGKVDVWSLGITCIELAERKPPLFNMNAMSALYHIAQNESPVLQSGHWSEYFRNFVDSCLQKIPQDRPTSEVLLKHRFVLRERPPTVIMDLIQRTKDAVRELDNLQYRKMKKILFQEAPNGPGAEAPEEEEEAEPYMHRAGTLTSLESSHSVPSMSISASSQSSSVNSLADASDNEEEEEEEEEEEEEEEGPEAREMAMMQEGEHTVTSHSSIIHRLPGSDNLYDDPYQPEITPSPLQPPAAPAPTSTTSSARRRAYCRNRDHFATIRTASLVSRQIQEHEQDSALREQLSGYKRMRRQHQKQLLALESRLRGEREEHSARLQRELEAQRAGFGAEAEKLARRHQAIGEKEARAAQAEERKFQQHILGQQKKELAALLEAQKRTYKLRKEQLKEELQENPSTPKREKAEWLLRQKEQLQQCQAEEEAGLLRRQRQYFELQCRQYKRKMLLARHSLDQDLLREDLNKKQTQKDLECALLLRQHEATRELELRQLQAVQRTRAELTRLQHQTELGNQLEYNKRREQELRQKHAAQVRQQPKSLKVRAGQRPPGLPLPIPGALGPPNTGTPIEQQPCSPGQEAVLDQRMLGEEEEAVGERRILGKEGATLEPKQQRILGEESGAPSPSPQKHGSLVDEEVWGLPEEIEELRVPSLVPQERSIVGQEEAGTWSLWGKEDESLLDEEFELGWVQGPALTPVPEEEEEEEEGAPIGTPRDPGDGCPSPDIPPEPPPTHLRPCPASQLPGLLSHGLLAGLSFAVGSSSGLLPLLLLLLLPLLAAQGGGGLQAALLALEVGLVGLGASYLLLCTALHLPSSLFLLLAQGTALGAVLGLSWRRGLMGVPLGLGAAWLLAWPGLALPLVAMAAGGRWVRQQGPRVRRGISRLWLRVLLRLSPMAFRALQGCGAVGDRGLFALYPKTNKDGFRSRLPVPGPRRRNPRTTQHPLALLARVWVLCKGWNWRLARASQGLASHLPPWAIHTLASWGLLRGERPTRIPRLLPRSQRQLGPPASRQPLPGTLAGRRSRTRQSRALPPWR

panel of 468 kinases [2] = target: T2, panel of 468 kinases (Homo sapiens, UniProt P00533, L858R/T790M); conditions: EGFR(L858R,T790M); 1 μM; read-out: % control
T2 construct: purchased KINOMEscan (ScanMAX) service

panel of 468 kinases [3] = target: T3, panel of 468 kinases (Homo sapiens, UniProt Q9H2G2); conditions: SLK; 1 μM; read-out: % control
T3 construct: purchased KINOMEscan (ScanMAX) service

panel of 468 kinases [4] = target: T4, panel of 468 kinases (Homo sapiens, UniProt Q8TD08); conditions: ERK8; 1 μM; read-out: % control
T4 construct: purchased KINOMEscan (ScanMAX) service
T4 sequence (Q8TD08 1-544): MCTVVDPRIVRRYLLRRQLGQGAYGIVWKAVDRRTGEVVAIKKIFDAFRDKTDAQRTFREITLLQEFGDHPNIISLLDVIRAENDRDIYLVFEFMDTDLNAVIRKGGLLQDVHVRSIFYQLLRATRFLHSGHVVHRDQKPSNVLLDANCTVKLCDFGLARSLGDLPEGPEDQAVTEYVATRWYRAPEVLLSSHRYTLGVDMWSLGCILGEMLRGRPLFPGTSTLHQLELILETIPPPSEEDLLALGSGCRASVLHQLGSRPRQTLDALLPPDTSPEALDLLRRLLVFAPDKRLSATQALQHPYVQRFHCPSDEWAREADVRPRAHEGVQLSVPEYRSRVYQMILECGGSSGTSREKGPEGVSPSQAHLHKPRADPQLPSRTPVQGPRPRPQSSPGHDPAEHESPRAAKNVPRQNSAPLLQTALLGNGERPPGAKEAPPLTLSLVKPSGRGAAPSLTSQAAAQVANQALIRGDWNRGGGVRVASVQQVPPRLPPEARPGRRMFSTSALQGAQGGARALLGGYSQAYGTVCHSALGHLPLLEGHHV

T2 sequence (P00533 25-1210 T790M/L858R): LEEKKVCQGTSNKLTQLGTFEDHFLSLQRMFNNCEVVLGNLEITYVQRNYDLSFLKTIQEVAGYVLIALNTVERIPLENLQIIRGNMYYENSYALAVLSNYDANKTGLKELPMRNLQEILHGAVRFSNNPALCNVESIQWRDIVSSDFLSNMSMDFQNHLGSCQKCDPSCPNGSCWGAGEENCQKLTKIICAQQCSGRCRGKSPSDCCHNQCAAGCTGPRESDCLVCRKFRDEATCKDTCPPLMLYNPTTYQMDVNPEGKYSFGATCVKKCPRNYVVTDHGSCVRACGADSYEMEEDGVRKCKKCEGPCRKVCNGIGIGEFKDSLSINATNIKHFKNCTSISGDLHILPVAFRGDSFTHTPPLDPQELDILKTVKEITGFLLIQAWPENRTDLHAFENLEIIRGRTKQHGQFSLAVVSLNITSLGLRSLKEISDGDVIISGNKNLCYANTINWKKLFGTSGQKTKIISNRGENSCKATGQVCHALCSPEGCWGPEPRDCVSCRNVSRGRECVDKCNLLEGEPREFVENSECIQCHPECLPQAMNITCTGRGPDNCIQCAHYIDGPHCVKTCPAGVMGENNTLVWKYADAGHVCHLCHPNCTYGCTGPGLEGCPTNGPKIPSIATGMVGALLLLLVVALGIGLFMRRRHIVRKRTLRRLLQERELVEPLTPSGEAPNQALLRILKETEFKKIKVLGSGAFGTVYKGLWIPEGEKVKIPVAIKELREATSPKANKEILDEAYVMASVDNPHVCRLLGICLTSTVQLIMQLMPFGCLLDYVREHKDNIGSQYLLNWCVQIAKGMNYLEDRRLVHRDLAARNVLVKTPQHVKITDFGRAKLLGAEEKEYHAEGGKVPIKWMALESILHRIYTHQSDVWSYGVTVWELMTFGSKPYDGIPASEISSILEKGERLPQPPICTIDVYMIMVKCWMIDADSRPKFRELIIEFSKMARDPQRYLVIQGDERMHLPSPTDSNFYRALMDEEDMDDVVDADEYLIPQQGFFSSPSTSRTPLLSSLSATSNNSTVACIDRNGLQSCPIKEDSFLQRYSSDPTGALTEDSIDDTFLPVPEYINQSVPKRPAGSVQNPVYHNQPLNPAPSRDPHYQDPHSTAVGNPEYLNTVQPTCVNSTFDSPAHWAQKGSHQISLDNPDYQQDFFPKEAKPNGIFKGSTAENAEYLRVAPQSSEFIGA
T3 sequence (Q9H2G2 whole entry): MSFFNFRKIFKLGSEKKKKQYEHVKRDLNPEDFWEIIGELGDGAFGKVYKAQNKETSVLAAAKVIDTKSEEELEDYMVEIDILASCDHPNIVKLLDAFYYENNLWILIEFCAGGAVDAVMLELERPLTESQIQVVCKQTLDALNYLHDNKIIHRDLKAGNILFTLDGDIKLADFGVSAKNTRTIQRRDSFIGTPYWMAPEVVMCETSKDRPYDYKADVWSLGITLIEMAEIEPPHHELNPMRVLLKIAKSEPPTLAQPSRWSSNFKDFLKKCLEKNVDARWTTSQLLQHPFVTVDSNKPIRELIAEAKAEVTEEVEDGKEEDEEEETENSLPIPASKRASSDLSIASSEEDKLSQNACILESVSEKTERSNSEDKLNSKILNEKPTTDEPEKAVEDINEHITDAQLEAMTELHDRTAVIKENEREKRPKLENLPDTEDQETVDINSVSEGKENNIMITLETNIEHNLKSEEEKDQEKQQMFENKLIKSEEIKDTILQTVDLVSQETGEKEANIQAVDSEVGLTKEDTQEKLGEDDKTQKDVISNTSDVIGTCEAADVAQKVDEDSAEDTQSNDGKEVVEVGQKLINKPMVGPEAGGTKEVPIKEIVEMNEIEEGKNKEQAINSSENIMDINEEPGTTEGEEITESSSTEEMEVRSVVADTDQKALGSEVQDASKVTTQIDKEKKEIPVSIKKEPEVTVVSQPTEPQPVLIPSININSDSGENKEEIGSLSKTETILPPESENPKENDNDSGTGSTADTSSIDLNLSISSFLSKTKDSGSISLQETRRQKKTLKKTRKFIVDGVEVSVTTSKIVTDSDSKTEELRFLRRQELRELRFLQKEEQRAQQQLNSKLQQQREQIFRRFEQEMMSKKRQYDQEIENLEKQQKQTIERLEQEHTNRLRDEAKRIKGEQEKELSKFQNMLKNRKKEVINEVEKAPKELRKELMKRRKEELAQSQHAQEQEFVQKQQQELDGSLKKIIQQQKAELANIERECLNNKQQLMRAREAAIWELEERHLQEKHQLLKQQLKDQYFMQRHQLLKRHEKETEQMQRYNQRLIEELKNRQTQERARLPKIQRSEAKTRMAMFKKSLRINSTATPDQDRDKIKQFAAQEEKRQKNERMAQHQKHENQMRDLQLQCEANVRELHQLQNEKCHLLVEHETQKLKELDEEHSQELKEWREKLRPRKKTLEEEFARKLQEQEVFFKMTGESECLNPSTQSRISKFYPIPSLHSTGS

SMILES	remaining binding at 1 µM (panel of 468 kinases [1]) [%]	remaining binding at 1 µM (panel of 468 kinases [2]) [%]	remaining binding at 1 µM (panel of 468 kinases [3]) [%]	remaining binding at 1 µM (panel of 468 kinases [4]) [%]
CNc1nc(Nc2ccc(S(=O)(=O)N3CCC(N4CCOCC4)CC3)cc2OC)nc2[nH]cc(Cl)c12 [Compound 12, 5-chloro-N2-(2-methoxy-4-((4-morpholinopiperidin-1-yl)sulfonyl)phenyl)-N4-methyl-7H-pyrrolo[2,3-d]pyrimidine-2,4-diamine]	73	66	100	100
CNc1nc(Nc2ccc(C(=O)N3CCC(N4CCOCC4)CC3)c3c2OCO3)nc2[nH]cc(Cl)c12 [Compound 75, (7-((5-chloro-4-(methylamino)-7H-pyrrolo[2,3-d]pyrimidin-2-yl)amino)benzo[d][1,3]dioxol-4-yl)(4-morpholinopiperidin-1-yl)methanone]	77	45	100	100
CNc1nc(Nc2ccc(P3(=O)CCN(C4CCOCC4)CC3)cc2OC)nc2[nH]cc(Cl)c12 [Compound 77, 4-(4-((5-chloro-4-(methylamino)-7H-pyrrolo[2,3-d]pyrimidin-2-yl)amino)-3-methoxyphenyl)-1-(tetrahydro-2H-pyran-4-yl)-1,4-azaphosphinane 4-oxide]	76	42	100	100

Reference: patent publication US12479847B2 (DANA-FARBER CANCER INSTITUTE, INC., priority 2019, dated 2025)
